In ChEMBL document CHEMBL3627608, “Crystal structures of human RIP2 kinase catalytic domain complexed with ATP-competitive inhibitors: Foundations for understanding inhibitor selectivity” (Bioorg Med Chem, 2015) one finds inhibition data, which are given here for three compounds.

The target in assay [1] is Receptor tyrosine-protein kinase erbB-2 (Homo sapiens) (UniProt P04626). Description: Inhibition of ERBB2 (unknown origin) at 10 uM after 120 mins P33 radiolabeled kinase activity assay.
For assay [2], the target named is Tyrosine-protein kinase FRK (Homo sapiens) (UniProt P42685). Description: Inhibition of FRK (unknown origin) at 10 uM after 120 mins P33 radiolabeled kinase activity assay.
Assay [3] concerns the target Protein kinase C alpha type (Homo sapiens) (UniProt P17252). Description: Inhibition of PKCalpha (unknown origin) at 10 uM after 120 mins P33 radiolabeled kinase activity assay.
The target of assay [4] is T1, Receptor-interacting serine/threonine-protein kinase 1 (Homo sapiens) (UniProt Q13546).
T1 sequence (whole entry): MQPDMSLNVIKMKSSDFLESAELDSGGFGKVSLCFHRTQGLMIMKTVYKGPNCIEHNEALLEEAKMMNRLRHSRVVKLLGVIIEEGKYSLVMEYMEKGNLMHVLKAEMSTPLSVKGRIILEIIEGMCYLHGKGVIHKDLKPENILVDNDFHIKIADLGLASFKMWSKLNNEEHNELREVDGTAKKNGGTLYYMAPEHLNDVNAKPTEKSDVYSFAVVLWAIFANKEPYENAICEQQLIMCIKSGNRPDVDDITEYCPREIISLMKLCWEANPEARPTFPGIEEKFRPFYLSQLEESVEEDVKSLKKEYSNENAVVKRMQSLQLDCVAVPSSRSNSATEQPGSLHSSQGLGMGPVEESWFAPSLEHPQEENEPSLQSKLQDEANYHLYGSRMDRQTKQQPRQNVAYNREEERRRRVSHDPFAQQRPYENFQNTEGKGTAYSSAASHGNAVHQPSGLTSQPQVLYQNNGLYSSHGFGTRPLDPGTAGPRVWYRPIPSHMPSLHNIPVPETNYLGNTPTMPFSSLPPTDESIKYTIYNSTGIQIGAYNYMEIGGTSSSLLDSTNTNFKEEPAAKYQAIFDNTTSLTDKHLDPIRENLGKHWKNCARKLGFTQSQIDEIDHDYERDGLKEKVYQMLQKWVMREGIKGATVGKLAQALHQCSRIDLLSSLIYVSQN
The assay is described as follows: Inhibition of RIP (unknown origin) at 10 uM after 120 mins P33 radiolabeled kinase activity assay.

Assay [5] deals with Mitogen-activated protein kinase kinase kinase 9 (Homo sapiens) (UniProt P80192). The assay is described as follows: Inhibition of MLK1 (unknown origin) at 10 uM after 120 mins P33 radiolabeled kinase activity assay.
The target of assay [6] is Serine/threonine-protein kinase WNK3 (Homo sapiens) (UniProt Q9BYP7). Description: Inhibition of WNK3 (unknown origin) at 10 uM after 120 mins P33 radiolabeled kinase activity assay.
Assay [7] has as its target Bone morphogenetic protein receptor type-1A (Homo sapiens) (UniProt P36894). The assay is described as follows: Inhibition of ALK3 (unknown origin) at 10 uM after 120 mins P33 radiolabeled kinase activity assay.
The target in assay [8] is T2, Kinase suppressor of Ras 2 (Homo sapiens) (UniProt Q6VAB6).
T2 sequence (whole entry): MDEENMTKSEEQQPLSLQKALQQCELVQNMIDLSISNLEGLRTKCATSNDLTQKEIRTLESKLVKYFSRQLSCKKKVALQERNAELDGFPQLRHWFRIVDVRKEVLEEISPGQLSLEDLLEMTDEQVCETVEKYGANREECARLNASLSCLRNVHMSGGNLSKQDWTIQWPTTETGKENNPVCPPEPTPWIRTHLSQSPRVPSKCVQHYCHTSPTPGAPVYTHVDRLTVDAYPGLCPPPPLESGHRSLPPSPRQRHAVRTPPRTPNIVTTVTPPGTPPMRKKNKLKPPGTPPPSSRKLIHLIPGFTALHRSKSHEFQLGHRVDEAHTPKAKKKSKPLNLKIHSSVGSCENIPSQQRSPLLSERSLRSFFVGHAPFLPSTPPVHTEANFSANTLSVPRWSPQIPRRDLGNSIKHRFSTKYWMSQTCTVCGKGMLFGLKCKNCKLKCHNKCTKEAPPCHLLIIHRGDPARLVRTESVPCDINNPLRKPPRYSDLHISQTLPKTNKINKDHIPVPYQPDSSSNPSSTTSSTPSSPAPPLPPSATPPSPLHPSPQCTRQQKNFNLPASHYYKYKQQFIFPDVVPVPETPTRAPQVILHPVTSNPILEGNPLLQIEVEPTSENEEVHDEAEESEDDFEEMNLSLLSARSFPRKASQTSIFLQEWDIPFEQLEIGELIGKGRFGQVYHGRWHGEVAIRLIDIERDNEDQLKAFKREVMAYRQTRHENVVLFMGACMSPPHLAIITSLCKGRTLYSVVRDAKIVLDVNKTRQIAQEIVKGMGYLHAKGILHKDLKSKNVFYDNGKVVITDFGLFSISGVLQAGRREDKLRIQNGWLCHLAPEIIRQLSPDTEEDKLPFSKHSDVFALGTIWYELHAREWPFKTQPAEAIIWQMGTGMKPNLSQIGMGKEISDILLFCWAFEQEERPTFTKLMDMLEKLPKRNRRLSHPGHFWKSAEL
The assay is described as follows: Inhibition of KSR2 (unknown origin) at 10 uM after 120 mins P33 radiolabeled kinase activity assay.

The target of assay [9] is Cyclin-dependent kinase 5/CDK5 activator 1 (Homo sapiens) (UniProt Q00535+Q15078). The assay is described as follows: Inhibition of CDK5/p35 (unknown origin) at 10 uM after 120 mins P33 radiolabeled kinase activity assay. Format: protein-complex assay.
In assay [10] the target is Dual specificity protein kinase CLK4 (Homo sapiens) (UniProt Q9HAZ1). The assay is described as follows: Inhibition of CLK4 (unknown origin) at 10 uM after 120 mins P33 radiolabeled kinase activity assay.
Dual specificity protein kinase CLK4 (Homo sapiens), sequence (Q9HAZ1 whole entry, looked up): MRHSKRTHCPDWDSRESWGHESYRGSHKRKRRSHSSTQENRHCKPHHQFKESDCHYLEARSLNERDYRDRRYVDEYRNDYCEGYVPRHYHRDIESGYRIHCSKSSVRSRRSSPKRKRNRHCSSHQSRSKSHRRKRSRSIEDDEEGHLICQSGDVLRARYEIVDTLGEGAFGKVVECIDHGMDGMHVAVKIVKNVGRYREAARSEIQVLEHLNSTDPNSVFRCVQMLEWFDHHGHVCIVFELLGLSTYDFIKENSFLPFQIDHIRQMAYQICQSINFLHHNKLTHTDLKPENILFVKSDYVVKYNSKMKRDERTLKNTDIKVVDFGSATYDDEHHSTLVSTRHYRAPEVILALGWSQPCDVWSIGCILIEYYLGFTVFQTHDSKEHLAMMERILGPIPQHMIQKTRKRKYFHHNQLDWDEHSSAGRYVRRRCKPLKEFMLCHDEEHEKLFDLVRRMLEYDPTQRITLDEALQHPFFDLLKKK

Tyrosine-protein kinase FRK (Homo sapiens), sequence (P42685 whole entry): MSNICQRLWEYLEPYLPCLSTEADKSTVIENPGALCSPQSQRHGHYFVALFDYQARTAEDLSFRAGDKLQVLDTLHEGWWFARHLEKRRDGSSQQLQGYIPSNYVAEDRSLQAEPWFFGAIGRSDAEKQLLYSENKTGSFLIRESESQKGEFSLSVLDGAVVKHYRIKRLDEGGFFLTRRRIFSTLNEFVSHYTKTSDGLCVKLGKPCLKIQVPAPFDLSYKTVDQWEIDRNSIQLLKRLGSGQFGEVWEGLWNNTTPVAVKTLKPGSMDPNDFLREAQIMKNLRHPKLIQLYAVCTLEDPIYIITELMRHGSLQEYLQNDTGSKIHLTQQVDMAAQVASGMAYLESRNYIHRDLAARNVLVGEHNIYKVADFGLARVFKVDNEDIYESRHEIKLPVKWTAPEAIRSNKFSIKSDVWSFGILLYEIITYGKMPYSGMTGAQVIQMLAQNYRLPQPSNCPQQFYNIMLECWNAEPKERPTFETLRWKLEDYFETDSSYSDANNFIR
Bone morphogenetic protein receptor type-1A (Homo sapiens), sequence (P36894 whole entry): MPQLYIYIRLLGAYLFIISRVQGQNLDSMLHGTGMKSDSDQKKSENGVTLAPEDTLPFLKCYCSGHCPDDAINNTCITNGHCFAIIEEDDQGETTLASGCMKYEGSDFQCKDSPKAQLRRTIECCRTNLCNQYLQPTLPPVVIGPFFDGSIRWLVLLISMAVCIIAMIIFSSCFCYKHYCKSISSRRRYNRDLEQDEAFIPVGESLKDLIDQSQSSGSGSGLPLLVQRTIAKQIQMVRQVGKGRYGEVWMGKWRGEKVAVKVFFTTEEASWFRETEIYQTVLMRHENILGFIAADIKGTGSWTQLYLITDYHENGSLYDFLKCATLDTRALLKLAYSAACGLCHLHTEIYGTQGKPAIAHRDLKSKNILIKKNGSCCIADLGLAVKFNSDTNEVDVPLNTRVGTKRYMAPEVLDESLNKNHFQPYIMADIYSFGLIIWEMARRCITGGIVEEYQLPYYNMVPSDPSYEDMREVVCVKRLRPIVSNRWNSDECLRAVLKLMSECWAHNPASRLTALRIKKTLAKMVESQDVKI
Mitogen-activated protein kinase kinase kinase 9 (Homo sapiens), sequence (P80192 whole entry, looked up): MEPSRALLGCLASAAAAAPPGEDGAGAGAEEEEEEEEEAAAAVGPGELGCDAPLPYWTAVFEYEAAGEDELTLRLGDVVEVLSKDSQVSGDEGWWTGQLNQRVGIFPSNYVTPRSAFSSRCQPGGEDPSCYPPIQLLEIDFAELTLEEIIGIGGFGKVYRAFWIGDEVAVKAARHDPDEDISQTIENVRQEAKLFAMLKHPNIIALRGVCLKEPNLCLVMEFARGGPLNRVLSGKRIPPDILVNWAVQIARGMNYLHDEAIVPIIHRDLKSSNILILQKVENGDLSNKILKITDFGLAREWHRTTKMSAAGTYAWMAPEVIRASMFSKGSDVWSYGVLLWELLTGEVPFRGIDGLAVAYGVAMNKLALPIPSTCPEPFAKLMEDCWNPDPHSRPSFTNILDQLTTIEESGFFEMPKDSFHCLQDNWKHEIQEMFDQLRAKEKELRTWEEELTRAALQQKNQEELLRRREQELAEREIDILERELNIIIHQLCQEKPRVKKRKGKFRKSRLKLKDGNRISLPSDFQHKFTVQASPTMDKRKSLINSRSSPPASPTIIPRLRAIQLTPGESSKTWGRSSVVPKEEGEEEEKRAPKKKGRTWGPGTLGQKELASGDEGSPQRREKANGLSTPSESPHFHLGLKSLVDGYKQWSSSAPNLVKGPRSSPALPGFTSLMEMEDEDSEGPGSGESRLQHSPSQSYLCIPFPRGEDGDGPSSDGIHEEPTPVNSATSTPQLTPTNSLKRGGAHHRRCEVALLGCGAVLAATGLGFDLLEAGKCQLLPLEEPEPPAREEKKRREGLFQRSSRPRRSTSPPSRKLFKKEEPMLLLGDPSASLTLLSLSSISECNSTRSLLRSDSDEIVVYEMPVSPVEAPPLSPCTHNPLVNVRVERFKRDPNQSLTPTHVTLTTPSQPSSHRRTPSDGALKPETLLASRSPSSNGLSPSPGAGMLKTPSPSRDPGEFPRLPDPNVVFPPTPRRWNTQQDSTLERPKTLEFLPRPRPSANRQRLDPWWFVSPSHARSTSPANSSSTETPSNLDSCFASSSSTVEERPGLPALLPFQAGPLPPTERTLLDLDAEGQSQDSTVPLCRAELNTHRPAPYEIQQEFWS
Cyclin-dependent kinase 5/CDK5 activator 1 (Homo sapiens), sequence (Q00535 whole entry): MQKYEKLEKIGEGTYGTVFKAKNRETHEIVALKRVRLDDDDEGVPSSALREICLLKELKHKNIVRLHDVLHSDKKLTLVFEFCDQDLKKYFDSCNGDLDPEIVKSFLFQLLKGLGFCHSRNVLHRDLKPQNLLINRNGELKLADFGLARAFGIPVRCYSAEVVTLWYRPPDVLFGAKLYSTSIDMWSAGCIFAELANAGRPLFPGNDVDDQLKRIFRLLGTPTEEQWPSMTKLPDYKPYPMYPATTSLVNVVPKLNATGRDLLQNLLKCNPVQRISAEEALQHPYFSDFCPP
Cyclin-dependent kinase 5/CDK5 activator 1 (Homo sapiens), sequence (Q15078 99-307 partner limits assumed): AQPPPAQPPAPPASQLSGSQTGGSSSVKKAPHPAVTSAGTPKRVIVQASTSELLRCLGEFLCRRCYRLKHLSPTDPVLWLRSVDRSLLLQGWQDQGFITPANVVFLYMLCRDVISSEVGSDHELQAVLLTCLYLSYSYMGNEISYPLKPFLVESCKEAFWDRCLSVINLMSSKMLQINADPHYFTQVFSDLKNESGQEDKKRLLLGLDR
Receptor tyrosine-protein kinase erbB-2 (Homo sapiens), sequence (P04626 whole entry): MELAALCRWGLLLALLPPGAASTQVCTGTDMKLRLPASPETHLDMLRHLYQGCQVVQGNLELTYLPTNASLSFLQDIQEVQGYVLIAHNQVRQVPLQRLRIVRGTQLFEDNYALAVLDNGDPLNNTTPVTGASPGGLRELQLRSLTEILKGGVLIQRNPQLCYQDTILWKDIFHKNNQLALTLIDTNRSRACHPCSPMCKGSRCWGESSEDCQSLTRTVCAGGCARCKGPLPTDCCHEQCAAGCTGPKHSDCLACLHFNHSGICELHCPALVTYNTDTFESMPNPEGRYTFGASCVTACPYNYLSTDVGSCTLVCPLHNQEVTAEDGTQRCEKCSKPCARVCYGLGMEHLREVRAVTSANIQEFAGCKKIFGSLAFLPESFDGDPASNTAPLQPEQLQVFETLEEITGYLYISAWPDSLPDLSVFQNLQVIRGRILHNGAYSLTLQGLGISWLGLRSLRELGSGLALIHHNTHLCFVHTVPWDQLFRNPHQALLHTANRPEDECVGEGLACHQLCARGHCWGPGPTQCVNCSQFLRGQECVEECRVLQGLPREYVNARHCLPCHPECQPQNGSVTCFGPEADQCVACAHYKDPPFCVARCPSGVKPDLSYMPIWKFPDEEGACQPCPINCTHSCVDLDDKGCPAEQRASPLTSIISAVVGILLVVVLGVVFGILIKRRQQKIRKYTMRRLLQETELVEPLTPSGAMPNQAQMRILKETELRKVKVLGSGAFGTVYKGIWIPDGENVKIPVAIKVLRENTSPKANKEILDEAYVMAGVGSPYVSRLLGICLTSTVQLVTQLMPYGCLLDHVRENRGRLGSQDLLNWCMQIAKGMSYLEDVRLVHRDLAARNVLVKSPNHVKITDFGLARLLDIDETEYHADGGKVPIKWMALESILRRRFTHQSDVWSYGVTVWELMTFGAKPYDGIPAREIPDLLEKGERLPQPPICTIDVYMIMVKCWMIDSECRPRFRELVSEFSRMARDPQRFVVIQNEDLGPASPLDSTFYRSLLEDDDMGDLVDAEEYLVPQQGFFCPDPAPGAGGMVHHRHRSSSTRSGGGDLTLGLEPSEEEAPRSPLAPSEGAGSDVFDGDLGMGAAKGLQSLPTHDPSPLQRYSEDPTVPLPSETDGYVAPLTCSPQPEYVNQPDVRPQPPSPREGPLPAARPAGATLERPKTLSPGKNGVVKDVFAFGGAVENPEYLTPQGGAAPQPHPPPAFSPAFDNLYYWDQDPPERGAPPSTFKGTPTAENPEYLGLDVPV

For the compound `CS(=O)(=O)c1cccc(Nc2nccc(-c3sc(N4CCOCC4)nc3-c3cccc(NS(=O)(=O)c4c(F)cccc4F)c3)n2)c1`, the inhibition – broadly, the change of the read-out against control, counted positive when it falls – in assay [1] was 95.3%; in assay [2], 96.9%; in [3] it was -5.32%; in [4], 54.4%; in assay [5], 94.4%; in assay [6] it was 25.9%. Besides, the inhibition was 75.5% in [7], 1.08% in assay [8], 94.7% in [9] and 36.7% in [10].

For the compound `CC(C)(C)c1cc(NC(=O)Nc2ccc(Oc3ccncc3)cc2)no1`, the inhibition in assay [1] was -7.24%; in assay [2], 99%; in assay [3], -7.51%; in assay [4], 53.2%; in assay [5], 29.7%; in assay [6], 1.93%. Besides, the inhibition is -6.2% in assay [7], 3.41% in assay [8], 57.3% in [9] and 36.5% in assay [10].

Consider `COCCNC(=O)c1ccc2c(c1)nc(-c1cnc(-c3ccc(Cl)cc3)[nH]1)n2CCOC`, for which the inhibition in assay [1] is 2.53%; in assay [2] it was 54.5%; in assay [3], -4.59%; in [4], 33.1%; in assay [5] it was 11%; in assay [6], -2.44%. Moreover, the inhibition in [7] was -9.9%; in [8], 3.38%; in assay [9], 0.14%; in [10] it was 41.3%.
